Assays:
Test in all cases: relative viability (nuclei count vs DMSO), 5 days (fraction); higher = more cells survive
BEN = system: BEN
Procedure, shortened: (§1)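 Medians of duplicate plates are given as relative viability. That measure is the nuclei count in treated wells divided by the count in vehicle wells. Counts were taken on 4× images of lung cancer cell lines in 1536-well plates, 5 days after pin-tool dosing the day after seeding with one drug alone or a fixed anchor-drug dose plus five library-drug doses (not always all listed) in √10 steps.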

NCI-H650 = system: NCI-H650
Procedure, shortened: as §1

LK-2 = system: LK-2
Procedure, shortened: as §1

LCLC-97TM1 = system: LCLC-97TM1
Procedure, shortened: as §1

HCC-78 = system: HCC-78
Procedure, shortened: as §1

SK-MES-1 = system: SK-MES-1
Procedure, shortened: as §1

NCI-H1355 = system: NCI-H1355
Procedure, shortened: as §1

LC-2-ad = system: LC-2-ad
Procedure, shortened: as §1

ChaGo-K-1 = system: ChaGo-K-1
Procedure, shortened: as §1

NCI-H1975 = system: NCI-H1975
Procedure, shortened: as §1

LXF-289 = system: LXF-289
Procedure, shortened: as §1

Work on `O=c1cc(-c2cccc3c2Sc2ccccc2S3)oc(N2CCOCC2)c1` + CC(=O)Nc1cccc(-n2c(=O)n(C3CC3)c(=O)c3c(Nc4ccc(I)cc4F)n(C)c(=O)c(C)c32)c1 [Trametinib] (partner 0.02 µM) yielded a relative viability (BEN; first compound 0.08 µM) of 0.945, a relative viability (BEN; first compound 0.253 µM) of 0.982 and a relative viability (BEN; first compound 0.8 µM) of 1.1. The relative viability (BEN; first compound 2.53 µM) was 0.975, the relative viability (BEN; first compound 8 µM) was 1.07 and the relative viability (NCI-H650; first compound 0.08 µM) was 0.994. It also gave a relative viability (NCI-H650; first compound 0.253 µM) of 1.03, a relative viability (NCI-H650; first compound 0.8 µM) of 0.959 and a relative viability (NCI-H650; first compound 2.53 µM) of 0.901. It also gave a relative viability (NCI-H650; first compound 8 µM) of 0.977, a relative viability (LK-2; first compound 0.08 µM) of 0.874 and a relative viability (LK-2; first compound 0.253 µM) of 0.852. For the same molecule, the relative viability (LK-2; first compound 0.8 µM) was 0.755, the relative viability (LK-2; first compound 2.53 µM) was 0.712 and the relative viability (LK-2; first compound 8 µM) was 1.03. The relative viability (LCLC-97TM1; first compound 0.08 µM) was 0.204, the relative viability (LCLC-97TM1; first compound 0.253 µM) was 0.196 and the relative viability (LCLC-97TM1; first compound 0.8 µM) was 0.175. The relative viability (LCLC-97TM1; first compound 2.53 µM) was 0.186, the relative viability (LCLC-97TM1; first compound 8 µM) was 0.181 and the relative viability (HCC-78; first compound 0.08 µM) was 0.712. The relative viability (HCC-78; first compound 0.253 µM) was 1.03, the relative viability (HCC-78; first compound 0.8 µM) was 0.677 and the relative viability (HCC-78; first compound 2.53 µM) was 0.786. It also gave a relative viability (HCC-78; first compound 8 µM) of 0.544, a relative viability (SK-MES-1; first compound 0.08 µM) of 0.543 and a relative viability (SK-MES-1; first compound 0.253 µM) of 0.579. It also gave a relative viability (SK-MES-1; first compound 0.8 µM) of 0.448, a relative viability (SK-MES-1; first compound 2.53 µM) of 0.481 and a relative viability (SK-MES-1; first compound 8 µM) of 0.379. The relative viability (NCI-H1355; first compound 0.08 µM) was 0.524, the relative viability (NCI-H1355; first compound 0.253 µM) was 0.468 and the relative viability (NCI-H1355; first compound 0.8 µM) was 0.348. For the same molecule, the relative viability (NCI-H1355; first compound 2.53 µM) was 0.409, the relative viability (NCI-H1355; first compound 8 µM) was 0.352 and the relative viability (LC-2-ad; first compound 0.08 µM) was 0.882. The relative viability (LC-2-ad; first compound 0.253 µM) was 0.967, the relative viability (LC-2-ad; first compound 0.8 µM) was 0.93 and the relative viability (LC-2-ad; first compound 2.53 µM) was 0.858. The relative viability (LC-2-ad; first compound 8 µM) was 0.858, the relative viability (ChaGo-K-1; first compound 0.08 µM) was 0.862 and the relative viability (ChaGo-K-1; first compound 0.253 µM) was 0.935. It also gave a relative viability (ChaGo-K-1; first compound 0.8 µM) of 0.894, a relative viability (ChaGo-K-1; first compound 2.53 µM) of 0.908 and a relative viability (ChaGo-K-1; first compound 8 µM) of 0.955. The relative viability (NCI-H1975; first compound 0.08 µM) was 0.323, the relative viability (NCI-H1975; first compound 0.253 µM) was 0.295 and the relative viability (NCI-H1975; first compound 0.8 µM) was 0.327. For the same molecule, the relative viability (NCI-H1975; first compound 2.53 µM) was 0.347, the relative viability (NCI-H1975; first compound 8 µM) was 0.39 and the relative viability (LXF-289; first compound 0.08 µM) was 0.657. It also gave a relative viability (LXF-289; first compound 0.253 µM) of 0.716, a relative viability (LXF-289; first compound 0.8 µM) of 0.73 and a relative viability (LXF-289; first compound 2.53 µM) of 0.651. It also gave a relative viability (LXF-289; first compound 8 µM) of 0.692.
